In ChEMBL document CHEMBL4138123, “Design, synthesis and biological evaluation of novel pyrazolochalcones as potential modulators of PI3K/Akt/mTOR pathway and inducers of apoptosis in breast cancer cells” (Eur J Med Chem, 2017):

Assays:
Assay type in all cases: functional
[1] = tested on: K562; assay: Cytotoxicity against human K562 cells assessed as growth inhibition after 48 hrs by sulforhodamine B assay; conditions: K562, 48 h
[2] = tested on: NCI-H226; assay: Cytotoxicity against human NCI-H226 cells assessed as growth inhibition after 48 hrs by sulforhodamine B assay; conditions: NCI-H226, 48 h
[3] = tested on: COLO 205; assay: Cytotoxicity against human COLO205 cells assessed as growth inhibition after 48 hrs by sulforhodamine B assay; conditions: COLO 205, 48 h
[4] = tested on: U-251; assay: Cytotoxicity against human U251 cells assessed as growth inhibition after 48 hrs by sulforhodamine B assay; conditions: U-251, 48 h
[5] = tested on: Malme-3M; assay: Cytotoxicity against human MALME-3M cells assessed as growth inhibition after 48 hrs by sulforhodamine B assay
[6] = tested on: SK-MEL-2; assay: Cytotoxicity against human SK-MEL-2 cells assessed as growth inhibition after 48 hrs by sulforhodamine B assay; conditions: SK-MEL-2, 48 h
[7] = tested on: OVCAR-5; assay: Cytotoxicity against human OVCAR5 cells assessed as growth inhibition after 48 hrs by sulforhodamine B assay; conditions: OVCAR-5, 48 h
[8] = tested on: ACHN; assay: Cytotoxicity against human ACHN cells assessed as growth inhibition after 48 hrs by sulforhodamine B assay
[9] = tested on: TK-10; assay: Cytotoxicity against human TK10 cells assessed as growth inhibition after 48 hrs by sulforhodamine B assay; conditions: TK-10, 48 h
[10] = tested on: NCI/ADR-RES; assay: Cytotoxicity against human NCI/ADR-RES cells assessed as cell growth at 0.01 uM after 48 hrs by sulforhodamine B assay relative to control; conditions: read-out: Activity
[11] = tested on: UACC-62; assay: Cytotoxicity against human UACC62 cells assessed as cell growth at 0.01 uM after 48 hrs by sulforhodamine B assay relative to control; conditions: UACC-62, 48 h, read-out: Activity
[12] = tested on: M14; assay: Cytotoxicity against human M14 cells assessed as cell growth at 0.01 uM after 48 hrs by sulforhodamine B assay relative to control; conditions: M14, 48 h, read-out: Activity
[13] = tested on: SNB-19; assay: Cytotoxicity against human SNB19 cells assessed as cell growth at 0.01 uM after 48 hrs by sulforhodamine B assay relative to control; conditions: SNB-19, 48 h, read-out: Activity
[14] = tested on: HT-29; assay: Cytotoxicity against human HT-29 cells assessed as cell growth at 0.01 uM after 48 hrs by sulforhodamine B assay relative to control; conditions: HT-29, 48 h, read-out: Activity
[15] = tested on: HCT-116; assay: Cytotoxicity against human HCT116 cells assessed as cell growth at 0.01 uM after 48 hrs by sulforhodamine B assay relative to control; conditions: HCT-116, 48 h, read-out: Activity
[16] = tested on: NCI-H460; assay: Cytotoxicity against human NCI-H460 cells assessed as cell growth at 0.01 uM after 48 hrs by sulforhodamine B assay relative to control; conditions: NCI-H460, 48 h, read-out: Activity
[17] = tested on: HOP-62; assay: Cytotoxicity against human HOP62 cells assessed as cell growth at 0.01 uM after 48 hrs by sulforhodamine B assay relative to control; conditions: HOP-62, 48 h, read-out: Activity
[18] = tested on: MCF7; assay: Cytotoxicity against human MCF7 cells assessed as cell growth at 0.01 uM after 48 hrs by sulforhodamine B assay relative to control; conditions: MCF7, 48 h, read-out: Activity
[19] = tested on: RPMI-8226; assay: Cytotoxicity against human RPMI8226 cells assessed as cell growth at 0.1 uM after 48 hrs by sulforhodamine B assay relative to control; conditions: RPMI-8226, 48 h, read-out: Activity
[20] = tested on: SK-MEL-28; assay: Cytotoxicity against human SK-MEL-28 cells assessed as cell growth at 0.1 uM after 48 hrs by sulforhodamine B assay relative to control; conditions: SK-MEL-28, 48 h, read-out: Activity
[21] = tested on: BT-549; assay: Cytotoxicity against human BT549 cells assessed as cell growth at 0.1 uM after 48 hrs by sulforhodamine B assay relative to control; conditions: BT-549, 48 h, read-out: Activity
[22] = tested on: HL-60(TB); assay: Cytotoxicity against human HL-60(TB) cells assessed as cell growth at 1 uM after 48 hrs by sulforhodamine B assay relative to control; conditions: HL-60, 48 h, read-out: Activity
[23] = tested on: NCI-H226; assay: Cytotoxicity against human NCI-H226 cells assessed as cell growth at 1 uM after 48 hrs by sulforhodamine B assay relative to control; conditions: NCI-H226, 48 h, read-out: Activity
[24] = tested on: Malme-3M; assay: Cytotoxicity against human MALME-3M cells assessed as cell growth at 1 uM after 48 hrs by sulforhodamine B assay relative to control; conditions: read-out: Activity
[25] = tested on: OVCAR-5; assay: Cytotoxicity against human OVCAR5 cells assessed as cell growth at 1 uM after 48 hrs by sulforhodamine B assay relative to control; conditions: OVCAR-5, 48 h, read-out: Activity
[26] = tested on: BT-549; assay: Cytotoxicity against human BT549 cells assessed as cell growth at 1 uM after 48 hrs by sulforhodamine B assay relative to control; conditions: BT-549, 48 h, read-out: Activity
[27] = tested on: T47D; assay: Cytotoxicity against human T47D cells assessed as cell growth at 1 uM after 48 hrs by sulforhodamine B assay relative to control; conditions: read-out: Activity
[28] = tested on: MDA-MB-468; assay: Cytotoxicity against human MDA-MB-468 cells assessed as cell growth at 1 uM after 48 hrs by sulforhodamine B assay relative to control; conditions: MDA-MB-468, 48 h, read-out: Activity
[29] = tested on: SF-268; assay: Cytotoxicity against human SF268 cells assessed as cell growth at 10 uM after 48 hrs by sulforhodamine B assay relative to control; conditions: SF-268, 48 h, read-out: Activity
[30] = tested on: 786-0; assay: Cytotoxicity against human 786-0 cells assessed as cell growth at 10 uM after 48 hrs by sulforhodamine B assay relative to control; conditions: 786-0, 48 h, read-out: Activity
[31] = tested on: ACHN; assay: Cytotoxicity against human ACHN cells assessed as cell growth at 10 uM after 48 hrs by sulforhodamine B assay relative to control; conditions: read-out: Activity
[32] = tested on: PC-3; assay: Cytotoxicity against human PC3 cells assessed as cell growth at 10 uM after 48 hrs by sulforhodamine B assay relative to control; conditions: PC-3, 48 h, read-out: Activity
[33] = tested on: BT-549; assay: Cytotoxicity against human BT549 cells assessed as cell growth at 10 uM after 48 hrs by sulforhodamine B assay relative to control; conditions: BT-549, 48 h, read-out: Activity
[34] = tested on: T47D; assay: Cytotoxicity against human T47D cells assessed as cell growth at 10 uM after 48 hrs by sulforhodamine B assay relative to control; conditions: read-out: Activity
[35] = tested on: ACHN; assay: Cytotoxicity against human ACHN cells assessed as cell growth at 100 uM after 48 hrs by sulforhodamine B assay relative to control; conditions: read-out: Activity

## COc1cc(C(=O)/C=C/c2cc(-c3cc(OC)c(OC)c(OC)c3)n[nH]2)cc(OC)c1OC
[1]
  LC50 (concentration killing 50% of cells): > 100 µM
  TGI: > 100 µM
[2]
  TGI: 3.05 µM
[3]
  LC50: 5.59 µM
  TGI: 3.13 µM
[4]
  LC50: 5.67 µM
  TGI: 2.96 µM
[5]
  LC50: 8.99 µM
  TGI: 4.09 µM
[6]
  LC50 (concentration killing 50% of cells): 8.32 µM
  TGI: 4.04 µM
[7]
  LC50: 5.92 µM
  TGI: 3.12 µM
[8]
  LC50: 5.57 µM
  TGI: 3.01 µM
[9]
  LC50: 5.34 µM
  TGI: 2.8 µM
[10]
  growth at 0.01 µM: 105%
[11]
  growth at 0.01 µM: 97%
[12]
  growth at 0.01 µM: 96%
[13]
  growth at 0.01 µM: 92%
[14]
  growth at 0.01 µM: 95%
[15]
  growth at 0.01 µM: 97%
[16]
  growth at 0.01 µM: 102%
[17]
  growth at 0.01 µM: 97%
[18]
  growth at 0.01 µM: 95%
[19]
  growth at 0.1 µM: 83%
[20]
  growth at 0.1 µM: 105%
[21]
  growth at 0.1 µM: 105%
[22]
  growth at 1 µM: 81%
[23]
  growth at 1 µM: 86%
[24]
  growth at 1 µM: 89%
[25]
  growth at 1 µM: 89%
[26]
  growth at 1 µM: 85%
[27]
  growth at 1 µM: 57%
[28]
  growth at 1 µM: 59%
[29]
  growth at 10 µM: -45%
[30]
  growth at 10 µM: -77%
[31]
  growth at 10 µM: -97%
[32]
  growth at 10 µM: -69%
[33]
  growth at 10 µM: -96%
[34]
  growth at 10 µM: -82%
[35]
  growth at 100 µM: -98%

## COc1cc(-c2cc(/C=C/C(=O)c3ccc(Cl)c(Cl)c3)[nH]n2)cc(OC)c1OC
[1]
  LC50 (concentration killing 50% of cells): > 100 µM
  TGI: 64.4 µM
[2]
  LC50 (concentration killing 50% of cells): > 100 µM
  TGI: > 100 µM
[3]
  LC50: > 100 µM
  TGI: 15.8 µM
[4]
  LC50: > 100 µM
  TGI: 80.5 µM
[5]
  LC50: > 100 µM
  TGI: > 100 µM
[6]
  LC50 (concentration killing 50% of cells): 83.8 µM
  TGI: 34.1 µM
[7]
  LC50: > 100 µM
  TGI: > 100 µM
[8]
  LC50: > 100 µM
  TGI: > 100 µM
[9]
  LC50: > 100 µM
  TGI: 43.2 µM
[10]
  growth at 0.01 µM: 100%
[11]
  growth at 0.01 µM: 97%
[12]
  growth at 0.01 µM: 98%
[13]
  growth at 0.01 µM: 100%
[14]
  growth at 0.01 µM: 100%
[15]
  growth at 0.01 µM: 102%
[16]
  growth at 0.01 µM: 105%
[17]
  growth at 0.01 µM: 99%
[18]
  growth at 0.01 µM: 105%
[19]
  growth at 0.1 µM: 95%
[20]
  growth at 0.1 µM: 114%
[21]
  growth at 0.1 µM: 95%
[22]
  growth at 1 µM: 90%
[23]
  growth at 1 µM: 96%
[24]
  growth at 1 µM: 95%
[25]
  growth at 1 µM: 92%
[26]
  growth at 1 µM: 92%
[27]
  growth at 1 µM: 62%
[28]
  growth at 1 µM: 76%
[29]
  growth at 10 µM: 60%
[30]
  growth at 10 µM: 50%
[31]
  growth at 10 µM: 67%
[32]
  growth at 10 µM: 39%
[33]
  growth at 10 µM: 47%
[34]
  growth at 10 µM: 9%
[35]
  growth at 100 µM: 16%

## COc1cc(-c2cc(/C=C/C(=O)c3ccc(F)c(F)c3)[nH]n2)cc(OC)c1OC
[1]
  LC50 (concentration killing 50% of cells): > 100 µM
  TGI: 16.5 µM
[2]
  LC50 (concentration killing 50% of cells): 66 µM
  TGI: 15.8 µM
[3]
  LC50: 6 µM
  TGI: 3.19 µM
[4]
  LC50: > 100 µM
  TGI: 15.7 µM
[5]
  LC50: > 100 µM
  TGI: 9.4 µM
[6]
  LC50 (concentration killing 50% of cells): 41.1 µM
  TGI: 5.89 µM
[7]
  LC50: > 100 µM
  TGI: 33.8 µM
[8]
  LC50: > 100 µM
  TGI: > 100 µM
[9]
  LC50: > 100 µM
  TGI: 7.42 µM
[10]
  growth at 0.01 µM: 100%
[11]
  growth at 0.01 µM: 97%
[12]
  growth at 0.01 µM: 94%
[13]
  growth at 0.01 µM: 89%
[14]
  growth at 0.01 µM: 104%
[15]
  growth at 0.01 µM: 101%
[16]
  growth at 0.01 µM: 106%
[17]
  growth at 0.01 µM: 100%
[18]
  growth at 0.01 µM: 91%
[19]
  growth at 0.1 µM: 90%
[20]
  growth at 0.1 µM: 102%
[21]
  growth at 0.1 µM: 105%
[22]
  growth at 1 µM: 101%
[23]
  growth at 1 µM: 95%
[24]
  growth at 1 µM: 97%
[25]
  growth at 1 µM: 92%
[26]
  growth at 1 µM: 92%
[27]
  growth at 1 µM: 76%
[28]
  growth at 1 µM: 79%
[29]
  growth at 10 µM: 17%
[30]
  growth at 10 µM: 11%
[31]
  growth at 10 µM: 2%
[32]
  growth at 10 µM: -23%
[33]
  growth at 10 µM: 23%
[34]
  growth at 10 µM: 9%
